Source: patent publication US8541617B2, “Cycloalkylphenyl substituted cyclic ketoenols” (Bayer Cropscience AG, priority 2006, dated 2013)

How the values were obtained:
[1] = system: Summer barley; test: Example C: Herbicidal post-emergence action, use of safeners (crop plant damage); assay type: in vivo; conditions: for Summer barley observed (%): no safener; for Summer barley observed (%), 10 days after application / Summer barley observed (%), 28 days after application: greenhouse container trial;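 as to Summer barley observed (%), 10 days after application: 100% means plants died and 0% means like untreated controls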;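 as to Summer barley observed (%), 28 days after application: 100% means plants died and 0% means like untreated controls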
Experimental: (§1) Herbicidal Post-Emergence Action
(§2) Seeds of monocotylos and dicotylos weed and crop plants are placed into sandy lawn in wood fibre pots or in plastic pots, covered with soil and cultivated in a greenhouse, during the vegetation period also outdoors outside of the greenhouse, under good growth conditions. Two to three weeks after sowing, the test plants are treated at the one- to three-leaf stage. The test compounds, formulated as wettable powders (WP) or liquid (EC), are, in the various dosages at a water application rate of 300 l/ha (converted), with wetting agent (0.2 to 0.3%) added, sprayed onto the plants and the surface of the soil. […]
(§3) If it is additionally to be tested as to whether safeners can improve the plant compatibility of test substances in the case of crop plants, the following options are used for applying the safener: • seeds of the crop plants are, before sowing, dressed with safener substance (the amount of safener stated in percent, based on the weight of the seed) • before the application of the test substances, the crop plants are sprayed with the safener at a certain application rate per hectare (usually 1 day before the application of the test substances) • the safener is applied together with the test substance as a tank mix (the amount of safener is stated in g/ha or as a ratio, based on the herbicide).
(§4) By comparing the effect of test substances on crop plants without or with safener treatment, it is possible to assess the effect of the safener substance.
(§5) Container trials in the greenhouse, treatment with safener 1 day prior to herbicide application

[2] = system: Summer wheat; test: as above; assay type: in vivo; conditions: for Summer wheat observed (%): no safener; for Summer wheat observed (%), 10 days after application / Summer wheat observed (%), 28 days after application: greenhouse container trial;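 as to Summer wheat observed (%), 10 days after application: 100% means plants died and 0% means like untreated controls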;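 as to Summer wheat observed (%), 28 days after application: 100% means plants died and 0% means like untreated controls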
Experimental: as §1, §2, §3, §4, §5

[3] = logP determination by HPLC on a reverse-phase column (C 18), EEC Directive 79/831 Annex V.A8; assay type: physicochemical; conditions: HPLC reverse-phase C 18, 43° C., acidic range (pH 2.3), 0.1% aqueous phosphoric acid/acetonitrile; for chromatographic logP: reverse-phase HPLC column (C 18)
Experimental: The logP values given in the table were determined in accordance with EEC Directive 79/831 Annex V.A8 by HPLC (High Performance Liquid Chromatography) on a reverse-phase column (C 18). Temperature: 43° C.
Mobile phases for the determination in the acidic range (pH 2.3): 0.1% aqueous phosphoric acid, acetonitrile; linear gradient from 10% acetonitrile to 90% acetonitrile.
Calibration was carried out using unbranched alkan-2-ones (having 3 to 16 carbon atoms) with known logP values (determination of the logP values by retention times using linear interpolation between two successive alkanones).

[4] = system: cotton aphid (Aphis gossypii); test: Example N: Aphis gossypii test, with ammonium/phosphonium salts and penetrants; assay type: in vivo; conditions: 20 ppm
Experimental: (§6) Solvent: 7 parts by weight of dimethylformamide
(§7) Emulsifier: 2 parts by weight of alkylaryl polyglycol ether
(§8) To produce a suitable preparation of active compound, 1 part by weight of active compound is mixed with the stated amounts of solvent and emulsifier and the concentrate is diluted with emulsifier-containing water to the desired concentration. For the application with penetrants (rapeseed oil methyl ester 500 EW), ammonium or phosphonium salts or ammonium salts and penetrants (rapeseed oil methyl ester 500 EW), these are in each case added in a concentration of 1000 ppm to the spray liquor.
Cotton plants (Gossypium hirsutum) which are heavily infested by the cotton aphid (Aphis gossypii) are treated by being sprayed to run off point with the preparation of active compound at the desired concentration.
After the desired period of time, the kill in % is determined. 100% means that all aphids have been killed; 0% means that none of the aphids have been killed.
(§9) In this test, for example, the following compounds of the Preparation Examples show good efficacy: see table

[5] = system: green peach aphid (Myzus persicae); test: Example M: Myzus persicae test, activity increase by ammonium/phosphonium salts in combination with penetrants; assay type: in vivo; conditions: for Kill (%) after 6 d +AS 1000 ppm: + ammonium sulphate 1000 ppm; for Kill (%) after 6 d +RME 1000 ppm: + rapeseed oil methyl ester 1000 ppm; for Kill (%) after 6 d: no additive
Experimental: Activity Increase by Ammonia/Phosphonium Salts in Combination with Penetrants
as §6, §7, §8
Paprika plants (Capsicum annuum) which are heavily infested by the green peach aphid (Myzus persicae) are treated by being sprayed to run off point with the preparation of active compound at the desired concentration.
After the desired period of time, the kill in % is determined. 100% means that all animals have been killed; 0% means that none of the animals have been killed.
as §9

[6] = From the text: Use was made of leaves which, fully developed, were cut from apple trees of the cultivar golden delicious.
Only the cuticles, free from hairs and stoma, of the upper sides of the leaves were then used. They were washed repeatedly alternating with water and a buffer solution of pH 7. The clean cuticles obtained were then mounted on Teflon plates and smoothed and dried with a gentle stream of air.
In the next step, the cuticle membranes obtained in this manner were placed into stainless steel diffusion cells (=transport chambers) for membrane transport studies. […] The arrangement was chosen such that the morphological outside of the cuticles was facing outwards, i.e. exposed to air, whereas the original inside was facing the interior of the diffusion cells.
The diffusion cells were filled with a 30% strength ethylene glycol/water solution. To determine the penetration, in each case 10 μl of the spray liquor of the composition below were applied to the outside of the cuticles. The spray liquor was prepared using local tap water of medium hardness.
After the spray liquors had been applied, the water was allowed to evaporate and the chambers were inverted and placed into thermostated taps in which temperature and atmospheric humidity over the cuticles could be adjusted using a gentle stream of air onto the cuticles with the spray coating (20° C., 60% rh).

[7] = 10 days after application, 12.5 g of a.i./ha
[8] = 10 days after application, 25 g of a.i./ha
[9] = 10 days after application, 50 g of a.i./ha
[10] = 10 days after application, 100 g of a.i./ha
[11] = 28 days after application, 50 g of a.i./ha
[12] = 28 days after application, 100 g of a.i./ha
[13] = 28 days after application, 12.5 g of a.i./ha
[14] = 28 days after application, 25 g of a.i./ha

## CCOC(=O)OC1=C(c2c(C)cc(C)cc2C2CC2)C(=O)NC12CCC(OC)CC2 (single isomer, unassigned) [Example I-1-c-7]
[1]; [7]
  Summer barley observed (%): 10%
[1]; [8]
  Summer barley observed (%): 40%
[1]; [9]
  Summer barley observed (%): 60%
[1]; [10]
  Summer barley observed (%): 90%
[1]; [11]
  Summer barley observed (%): 50%
[1]; [12]
  Summer barley observed (%): 95%
[2]; [7]
  Summer wheat observed (%): 20%
[2]; [8]
  Summer wheat observed (%): 60%
[2]; [13]
  Summer wheat observed (%): 10%
[2]; [14]
  Summer wheat observed (%): 20%
[2]; [11]
  Summer wheat observed (%): 80%

## COC1CCC2(CC1)OC(=O)C(c1c(C)cc(C3CC3)cc1C)=C2O (single isomer, unassigned) [Example I-2-a-3]
[3]
  logP: 2.64

## COC1CCC2(CC1)OC(=O)C(c1c(C)cc(C3CC3)cc1C)=C2O (single isomer, unassigned) [Example I-2-a-4]
[3]
  logP: 2.88

## CCc1cc(C)cc(C2CC2)c1C1=C(O)C(C)(C)NC1=O [Example I-1-a-5]
[1]; 12.5 g of a.i./ha
  Summer barley observed (%), 10 days after application: 50%
  Summer barley observed (%), 28 days after application: 15%
[1]; 25 g of a.i./ha
  Summer barley observed (%), 10 days after application: 70%
  Summer barley observed (%), 28 days after application: 25%
[1]; 50 g of a.i./ha
  Summer barley observed (%), 10 days after application: 80%
  Summer barley observed (%), 28 days after application: 40%
[2]; 6.25 g of a.i./ha
  Summer wheat observed (%), 10 days after application: 50%
  Summer wheat observed (%), 28 days after application: 10%
[2]; 12.5 g of a.i./ha
  Summer wheat observed (%), 10 days after application: 60%
  Summer wheat observed (%), 28 days after application: 40%
[2]; 25 g of a.i./ha
  Summer wheat observed (%), 10 days after application: 70%
  Summer wheat observed (%), 28 days after application: 60%
[2]; 50 g of a.i./ha
  Summer wheat observed (%), 10 days after application: 70%
  Summer wheat observed (%), 28 days after application: 75%

## COC1CCC2(CC1)NC(=O)C(c1c(C)cc(C)cc1C1CC1)=C2O (stereo not shown) [Example I-1-a-7]
[1]; [7]
  Summer barley observed (%): 10%
[1]; [8]
  Summer barley observed (%): 50%
[1]; [9]
  Summer barley observed (%): 60%
[2]; [13]
  Summer wheat observed (%): 30%
[2]; [14]
  Summer wheat observed (%): 60%
[2]; [11]
  Summer wheat observed (%): 70%
[2]; [12]
  Summer wheat observed (%): 80%
[4]; + AS + RME in each case 1000 ppm
  Kill (%) after 6 d +AS + RME in each case 1000 ppm: 99%
[4]; + ammonium sulphate 1000 ppm
  Kill (%) after 6 d +AS 1000 ppm: 65%
[4]; + rapeseed oil methyl ester 1000 ppm
  Kill (%) after 6 d +RME 1000 ppm: 75%
[4]; no additive
  Kill (%) after 6 d: 55%

## Cc1cc(C)c(C2=C(O)C(C)(C)NC2=O)c(C2CC2)c1 [Example I-1-a-8]
[2]; [8]
  Summer wheat observed (%): 25%
[2]; [9]
  Summer wheat observed (%): 30%
[2]; [10]
  Summer wheat observed (%): 30%

## CCOC1CCCC2(CC1)NC(=O)C(c1c(C)cc(C)cc1C1CC1)=C2O (stereo not shown) [Example I-1-a-9]
[2]; [7]
  Summer wheat observed (%): 60%
[2]; [8]
  Summer wheat observed (%): 65%
[2]; [14]
  Summer wheat observed (%): 50%

## CCCCOC1CCCC2(C1)NC(=O)C(c1c(Cl)cc(C)cc1C1CC1)=C2O (stereo not shown) [Example I-1-a-12]
[2]; 6.25 g of a.i./ha
  Summer wheat observed (%), 10 days after application: 10%
[2]; 12.5 g of a.i./ha
  Summer wheat observed (%), 10 days after application: 40%
[2]; 25 g of a.i./ha
  Summer wheat observed (%), 10 days after application: 50%
[2]; 10 days after application, 6.25 g of a.i./ha
  Summer wheat observed (%): 30%
[2]; [7]
  Summer wheat observed (%): 50%
[2]; [8]
  Summer wheat observed (%): 60%
[2]; [9]
  Summer wheat observed (%): 60%
[2]; 28 days after application, 6.25 g of a.i./ha
  Summer wheat observed (%): 5%
[2]; [13]
  Summer wheat observed (%): 25%
[2]; [14]
  Summer wheat observed (%): 65%
[2]; [11]
  Summer wheat observed (%): 65%

## CCOC1CCCC2(C1)NC(=O)C(c1c(Cl)cc(C)cc1C1CC1)=C2O (stereo not shown) [Example I-1-a-14]
[1]; [13]
  Summer barley observed (%): 20%
[1]; [14]
  Summer barley observed (%): 60%
[1]; [11]
  Summer barley observed (%): 70%
[2]; [13]
  Summer wheat observed (%): 20%
[2]; [14]
  Summer wheat observed (%): 50%
[2]; [11]
  Summer wheat observed (%): 75%
[2]; [12]
  Summer wheat observed (%): 85%

## COC1CCC2(CC1)NC(=O)C(c1c(C3CC3)cc(C)cc1C1CC1)=C2O (stereo not shown) [Example I-1-a-15]
[5]; 4 ppm
  Kill (%) after 6 d +AS + RME in each case 1000 ppm: 95%
  Kill (%) after 6 d +AS 1000 ppm: 15%
  Kill (%) after 6 d +RME 1000 ppm: 55%
  Kill (%) after 6 d: 5%
[5]; 20 ppm
  Kill (%) after 6 d +AS + RME in each case 1000 ppm: 98%
  Kill (%) after 6 d +AS 1000 ppm: 95%
  Kill (%) after 6 d +RME 1000 ppm: 95%
  Kill (%) after 6 d: 95%

## CCc1cc(C)cc(C2CC2)c1C1=C(O)C2CCCN2C1=O (stereo not shown) [Example I-1-a-18]
[1]; [7]
  Summer barley observed (%): 10%
[1]; [8]
  Summer barley observed (%): 15%
[1]; [9]
  Summer barley observed (%): 25%
[1]; [10]
  Summer barley observed (%): 35%
[1]; [11]
  Summer barley observed (%): 10%
[1]; [12]
  Summer barley observed (%): 20%
[2]; 12.5 g of a.i./ha
  Summer wheat observed (%), 10 days after application: 10%
[2]; 25 g of a.i./ha
  Summer wheat observed (%), 10 days after application: 15%
[2]; 50 g of a.i./ha
  Summer wheat observed (%), 10 days after application: 25%
[2]; 100 g of a.i./ha
  Summer wheat observed (%), 10 days after application: 40%

## CCc1cc(C2CC2)cc(C2CC2)c1C1=C(O)C(C)(C)NC1=O [Example I-1-a-21]
[6]
  Penetration after 24 h/% a.i. + AS (1 g/l): 1.1%
  Penetration after 24 h/% a.i. + RME (1 g/l): 35.6%
  Penetration after 24 h/% a.i. + RME (1 g/l) + AS (1 g/l): 56.9%

## CCOC(=O)OC1=C(c2c(C3CC3)cc(C)cc2C2CC2)C(=O)NC1(C)C [Example I-1-c-13]
[1]; [7]
  Summer barley observed (%): 5%
[1]; [8]
  Summer barley observed (%): 20%
[1]; [9]
  Summer barley observed (%): 30%
[2]; [7]
  Summer wheat observed (%): 20%
[2]; [8]
  Summer wheat observed (%): 30%
[2]; [9]
  Summer wheat observed (%): 40%

## CCc1cc(C)cc(C2CC2)c1C1=C(O)[C@]2(CC[C@H](OC)CC2)OC1=O [Example I-2-a-1]
[3]
  chromatographic logP: 2.81

## CCc1cc(C)cc(C2CC2)c1C1=C(O)[C@]2(CC[C@@H](OC)CC2)OC1=O [Example I-2-a-2]
[3]
  chromatographic logP: 3.07

## Cc1cc(C2CC2)cc(C)c1C1=C(O)C2(CCOCC2)OC1=O [Example I-2-a-5]
[3]
  logP: 2.36

## CCc1cc(C)cc(C2CC2)c1C1=C(OC(=O)C(C)(C)C)[C@]2(CC[C@H](OC)CC2)OC1=O [Example I-2-b-1]
[3]
  chromatographic logP: 5.03

## CCOC(=O)C1(OC(=O)Cc2c(CC)cc(C)cc2C2CC2)CCC(OC)CC1 (stereo not shown) [III-1]
[3]
  chromatographic logP: 5.15
